Measured values as given in patent publication US20110105389A1 (priority 2009, published 2011).

Assays:
[1] = Metabolic stability in human liver microsomes, Method B8; type: in vitro ADME; settings: human liver microsomes 0.8 mg/mL, 5 μM compound, 37° C.
Excerpt: B8. Metabolic Stability in Human Liver Microsomes
The liver is the primary site for phase I (oxidation) and phase II (glucuronidation) enzymatic activity responsible for xenobiotic metabolism. Human liver microsomes are used as in vitro screen of metabolic activity for candidate drugs. Similar studies can be run with microsomes from other species, such as those used for in vivo studies, to determine any significant species differences in the stability profile. The aim of this study was to measure the broad-spectrum metabolic stability of representative compounds of the invention. The key aspects of the experimental design are summarized below: • Human liver microsomes (mixed pool of 15 male and female donors) were purchased from In Vitro Technologies (Baltimore, Md.). • Microsomes characterized for phase I (Cyp2A6, 2D6, 2E1, 1A2, 2C19, 3A4, 4A) and phase II (glucuronidation) enzymatic activity. • Assays are performed using a final concentration of 0.8 mg/mL of microsomes in 100 mM potassium phosphate buffer (1.5 mM NADPH, 8 mM MgCl2, pH 7.4, 37° C.). • Compounds are tested in duplicate samples at a single concentration of 5 μM (0.05% DMSO). • Test articles are incubated with the microsomes at 37° C.

[2] = target: T1, human ghrelin receptor (GRLN, growth hormone secretagogue receptor, hGHS-R1a) (Homo sapiens, UniProt Q92847); assay: Competitive radioligand binding assay (ghrelin receptor), Method B1; settings: Ghrelin receptor binding activity, Method B1
T1 construct: purchased PerkinElmer BioSignal #RBHGHSM, lot#1887; host or cells: HEK-293 cells, stably transfected (membranes)
In short: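 Membranes incubated with compound 30 min at rt in 25 mM Hepes pH 7.4, 1 mM CaCl2, 5 mM MgCl2, 2.5 mM EDTA, 0.4% BSA, max 0.1% DMSO; filtered on PEI-soaked GF/C, washed with cold Tris, scintillation counted. Curves fitted by variable-slope non-linear regression.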

[3] = Pharmacokinetic analysis (intravenous and oral), Method B9; type: in vivo; settings: Table 10b; for Cl / t1/2: 2 mg/mL intravenous typically employed
Excerpt: B9. Pharmacokinetic Analysis
The pharmacokinetic (PK) behavior of compounds of the invention and their pharmaceutical compositions can be ascertained by methods well known to those skilled in the art and can be used to investigate the pharmacokinetic parameters (elimination half-life, total plasma clearance, etc.) for intravenous, subcutaneous and oral administration of these substances. (Wilkinson, G. R. “Pharmacokinetics: The Dynamics of Drug Absorption, Distribution, and Elimination” in Goodman & Gilman's The Pharmacological Basis of Therapeutics, Tenth Edition, Hardman, J. G.; Limbird, L. E., Eds., McGraw Hill, Columbus, Ohio, 2001, Chapter 1.) See also U.S. Pat. Nos. 7,476,653; 7,491,695; Intl. Pat. Appl. WO 2008/033328 and U.S. Patent Appl. Publ. 2008/0194672. As an example, compound 1505 has the PK profile below.
The determination of PK parameters for additional representative compounds of the invention is presented in the Examples.
A detailed analysis of the pharmacokinetic profile of representative compounds of the invention was conducted using the procedures outlined in Method B9.
A dose level of 2 mg/mL for intravenous administration and 8 mg/mL for oral administration were typically employed.

[4] = target: T2, GHS-R1a receptor (HEK293 cells expressing GHS-R1a receptor) (Homo sapiens, UniProt Q92847); assay: Fluorescence functional assay (ghrelin receptor), Method B2, agonist and antagonist mode; type: cell-based; settings: functional activity as an antagonist at the ghrelin receptor, Methods B2 and B3
T2 construct: host or cells: HEK293
Experimental: • 1. ImageTrak Epi-Fluorescence system (Perkin-Elmer) • 2. MultiDrop TiterTek • 3. CO2 incubators: 5% CO2, humidified, 37° C.
• 1. Hanks' BSS without phenol red (Life Technologies) • 2. Hepes buffer • 3. Probenecid (Sigma) • 4. […] Falcon cell culture 96-well black/clear bottom plates • 6. 0.05% trypsin-EDTA • 7. Cells: HEK293 cells expressing GHS-R1a receptor (Perkin-Elmer BioSignal) were grown in DMEM (Dulbecco's Modified Eagles Medium) with 10% FBS, 1% sodium pyruvate, 1% NEAA and 400 μg/mL geneticin • 8. […] [D-Lys^3]-GHRP-6 (reference antagonist, Phoenix #031-22) • 10. Assay buffer: HBSS-20 mM Hepes containing 2.5 mM probenecid and 0.1% BSA (bovine serum albumin); pH 7.4
Stock solutions of compounds (10 mM in 100% DMSO) were provided frozen on dry ice and stored at −80° C. prior to use. […] Assay plates were then prepared by appropriate dilution in assay buffer.
Typical Final Test Concentrations (N=10) for Test Compounds (agonist):
Typical Final Test Concentrations (N=10) for Test Compounds (antagonist):
Cells were maintained in culture as indicated above. The cells were harvested at a confluency of 70-90% the day before the experiment. Growth medium was removed and the cells rinsed briefly with PBS without Ca^+2 and Mg^+2. 0.05% Trypsin was added and the plates incubated at 37° C. for 5 min to detach the cells. DMEM medium supplemented with 10% FBS was added to inactivate the trypsin and determine the cell concentration. The inoculum was adjusted to a final concentration of 200 cells/μL and dispensed at 200 μL per well into a 96-well block plate. The plates were, incubated at 37° C. overnight.
The plates were removed from the incubator and the media removed by inversion of the plates. Calcium-3 dye, 50 μL, was loaded and then incubated for 1 h at 37° C. The plate was again inverted and then 25 μL of assay buffer added. The plates were then transferred to the ImageTrak system for analysis. For agonist testing, after reading for ten (10) sec, 25 μL of 2× test compound or control was injected into the assay plate. Fluorescence was monitored for an additional 50 sec. A reading was taken every two (2) seconds for a total of 30 readings per assay point.
For antagonist testing, after reading for ten (10) sec, 12.5 μL of 3× test compound or control was injected into the assay plate and allowed to react for three (3) min.
Concentration response curves were analyzed using GraphPad Prism (GraphPad Software, San Diego, Calif.) by non-linear regression analysis (sigmoidal dose-response). EC50 values are calculated using GraphPad.
Emax values were calculated using the following formula: […]
Concentration response curves were analyzed using GraphPad Prism (GraphPad Software, San Diego, Calif.) by non-linear regression analysis (sigmoidal dose-response). IC50 values are calculated using GraphPad.
Imax values were calculated using the following formula: […]

[5] = target: T3, ghrelin receptor (HEK-GHSR1 stable cells) (Homo sapiens, UniProt Q92847); assay: Ghrelin receptor inverse agonist assay (HTRF IP-one), Method B4; type: cell-based; settings: inverse agonist at the ghrelin receptor, Method B4
T3 construct: expressed in transfected cells
Excerpt: B4. Ghrelin Receptor Inverse Agonist Assay […]
In addition, the following method can be utilized to assay for inverse agonist activity. (Thomsen, W.; et al. Curr. Opin. Biotechnol. 2005, 16, 655-665; Tozawa-Takahashi F; et al., 11th SBS Annual Conference. September 2005, Geneva; Trinquet, E.; Fink, M.; Bazin, H.; et al. Anal. Biochem. 2006, 358, 126-135; Bergsdorf, C.; Kropp-Goerkis, C.; Kaehler, I.; Ketscher, L.; Boerner, U.; Parczyk, K.; Bader, B. Assay Drug Dev. Technol. 2008, 6, 39-53.)
• 1. Remove culture medium from the plate by inversion. • 2. Add 70 μl of compound/well. • 3. Incubate 30 min at 37° C. • 4. Stop the reaction by adding 15 μl of lysis buffer/well. • 5. Add 15 μl of d2/well. • 6. Add 15 μl of Anti-IP1 cryptate/well. • 7. Incubate 1 h at room temp on an orbital shaker at 100 RPM. • 8. Read the fluorescence in a plate reader (Tecan GeniosPro or similar)
The above sequence was performed using the HTRF IP-one kit (CisBio cat#62P1APEC). For the simultaneous assay of multiple test compounds, 96-well plates can be utilized in this assay (white plate with flat-bottom well, Falcon #353296). These were seeded overnight with 100 000 of HEK-GHSR1 stable cells/well. • Wells A1 and A2 of each plate are used as negative control (wells without d2). Compounds are typically tested in replicate at the following concentrations:
Compounds are stored at 10 mM in 100% DMSO.
1st dilution 1/10 in 100% DMSO (1 mM final concentration).
2nd dilution 1/10 in H2O (0.1 mM final concentration).
Other dilutions are performed in a 96-well plate in stimulation buffer.
The results for representative compounds of the invention are provided in the Examples.

T3 sequence (Q92847 whole entry): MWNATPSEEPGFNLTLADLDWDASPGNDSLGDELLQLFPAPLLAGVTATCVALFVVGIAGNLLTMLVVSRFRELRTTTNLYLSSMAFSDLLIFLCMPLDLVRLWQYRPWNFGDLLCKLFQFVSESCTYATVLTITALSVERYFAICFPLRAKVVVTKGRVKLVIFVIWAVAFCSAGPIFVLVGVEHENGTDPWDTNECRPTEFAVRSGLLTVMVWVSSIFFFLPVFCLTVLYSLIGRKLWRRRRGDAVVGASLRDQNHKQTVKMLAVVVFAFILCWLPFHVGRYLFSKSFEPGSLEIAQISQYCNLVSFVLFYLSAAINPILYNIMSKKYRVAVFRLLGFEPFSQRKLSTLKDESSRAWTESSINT
T1 sequence (Q92847 whole entry): as above
T2 sequence (Q92847 whole entry): as above

Structure (SMILES) | HLM, metabolic stability in human liver microsomes [1] | IC50 [2] | % F ([3]; 2 mg/mL intravenous and 8 mg/mL oral typically employed) | Cl [3] | t1/2 [3] | Antagonist Activity [4] | IC50 [5]
CC(C)[C@@H]1NCCOc2ccc(F)cc2CCCNC(=O)[C@@H](Cc2ccccc2)NC(=O)[C@H](C(C)O)N(C)C1=O (some centres unmarked) [Compound 1377] | 65.5 μL/min/mg protein | – | – | – | – | – | –
CC(C)[C@@H]1NCCOc2ccccc2CC[C@@H](C)NC(=O)[C@@H](Cc2cccc(C(F)(F)F)c2)NC(=O)[C@H](C(C)O)N(C)C1=O (some centres unmarked) [Compound 1412] | 35.4 μL/min/mg protein | – | – | – | – | – | –
COc1cccc(C[C@H]2NC(=O)[C@H](C(C)O)N(C)C(=O)[C@H](C(C)C)NCCOc3cc(F)ccc3CC[C@@H](C)NC2=O)c1 (some centres unmarked) [Compound 1473] | 14.2 μL/min/mg protein | – | – | – | – | – | –
CCC1CCc2ccc(F)cc2OC(C)CNC(C2(C)CC2)C(=O)N(C)C(C(C)O)C(=O)NC(Cc2ccccc2)C(=O)N1 (centres unmarked) [Compound 1705] | – | 10 to 100 nM | 50 ± 14% | 6 ± 2 mL/min/kg | 2.77 ± 0.033 h | C (C = 10-100 nM) | 100 to 500 nM
CC[C@@H]1CCc2ccc(F)cc2OCCN[C@@H](C2(C)CC2)C(=O)N(C)[C@@H](C(C)O)C(=O)N[C@H](Cc2cccc(F)c2)C(=O)N1 (some centres unmarked) [Compound 1747] | – | 10 to 100 nM | – | – | – | B (B = 1-10 nM) | 50 to 100 nM
CC[C@@H]1CCc2ccc(F)cc2OCCN[C@@H](C(C)C)C(=O)N(C)[C@@H](C(C)O)C(=O)N[C@H](Cc2ccc(Cl)cc2)C(=O)N1 (some centres unmarked) [Compound 1753] | – | 10 to 100 nM | – | – | – | B (B = 1-10 nM) | 50 to 100 nM
CCC(C)C1NCCOc2cccc(F)c2C=CCNC(=O)C(Cc2ccc(Cl)cc2)NC(=O)C(C(C)O)N(C)C1=O (centres unmarked) [Compound 1799] | – | 1 to 10 nM | – | – | – | C (C = 10-100 nM) | 50 to 100 nM
CC1CCc2ccccc2OCCNC(C(C)C)C(=O)N(C)C(C(C)O)C(=O)NC(Cc2c[nH]c3ccc(F)cc23)C(=O)N1 (centres unmarked) [Compound 1801] | – | 1 to 10 nM | – | – | – | B (B = 1-10 nM) | 10 to 50 nM
CCC1CCc2ccc(F)cc2OCCNC(C(C)C)C(=O)N(C)C(C(C)O)C(=O)NC(Cc2c[nH]c3ccc(F)cc23)C(=O)N1 (centres unmarked) [Compound 1803] | – | 1 to 10 nM | – | 10 ± 1 mL/min/kg | 1.72 ± 0.217 h | B (B = 1-10 nM) | 10 to 50 nM
CCC1CCc2ccc(F)cc2OCCNC(C(C)C)C(=O)N(C)C(C(C)O)C(=O)NC(C(C)c2ccccc2)C(=O)N1 (centres unmarked) [Compound 1805] | – | 10 to 100 nM | – | – | – | C (C = 10-100 nM) | 100 to 500 nM
CCC1CCc2ccc(Cl)cc2OCCNC(C(C)C)C(=O)N(C)C(C(C)O)C(=O)NC(Cc2c[nH]c3ccccc23)C(=O)N1 (centres unmarked) [Compound 1806] | – | 10 to 100 nM | – | – | – | C (C = 10-100 nM) | 100 to 500 nM
CCC1CCc2ccccc2OCCNC(C(C)C)C(=O)N(C)C(C(C)O)C(=O)NC(Cc2c[nH]c3ccc(F)cc23)C(=O)N1 (centres unmarked) [Compound 1808] | – | 1 to 10 nM | – | – | – | B (B = 1-10 nM) | 10 to 50 nM
CCC1CCc2ccc(F)cc2OCCNC(C(C)C)C(=O)N(C)C(C(C)O)C(=O)NC(Cc2cn(S(=O)(=O)c3ccc(C)cc3)c3ccccc23)C(=O)N1 (centres unmarked) [Compound 1812] | – | 10 to 100 nM | – | – | – | C (C = 10-100 nM) | 50 to 100 nM
CCC1CCc2ccc(F)cc2OCCNC(CC)C(=O)N(C)C(C(C)O)C(=O)NC(Cc2ccccc2)C(=O)N1 (centres unmarked) [Compound 1854] | – | 100 to 500 nM | – | – | – | – | 100 to 500 nM
CCC1CCc2ccc(F)cc2OCCNC(CC)C(=O)N(C)C(C(C)O)C(=O)NC(Cc2ccc(F)cc2)C(=O)N1 (centres unmarked) [Compound 1855] | – | 10 to 100 nM | – | – | – | – | 100 to 500 nM
CC(O)[C@H]1C(=O)N[C@H](Cc2ccc(Cl)cc2)C(=O)N[C@H](C)CCc2ccc(F)cc2OCCN[C@@H](C2(C)CC2)C(=O)N1C (some centres unmarked) [Compound 1872] | – | 1 to 10 nM | – | – | – | – | 10 to 50 nM
CC[C@@H]1CCc2ccc(F)cc2OCCN[C@@H](C2(C)CC2)C(=O)N(C)[C@@H](C(C)O)C(=O)N[C@H](Cc2ccc(Cl)cc2)C(=O)N1 (some centres unmarked) [Compound 1875] | – | 1 to 10 nM | – | – | – | – | 50 to 100 nM
CC(O)[C@H]1C(=O)N[C@H](Cc2ccc(F)cc2)C(=O)NCC#Cc2ccccc2OCCN[C@@H](C2(C)CC2)C(=O)N1C (some centres unmarked) [Compound 1879] | – | 10 to 100 nM | – | – | – | – | 10 to 50 nM
CC(O)[C@H]1C(=O)N[C@H](Cc2ccc(F)cc2)C(=O)NCC#Cc2c(F)cccc2OCCN[C@@H](C2(C)CC2)C(=O)N1C (some centres unmarked) [Compound 1884] | – | 1 to 10 nM | – | – | – | – | 10 to 50 nM
